Test results as given in the NIST ThermoML archive (doi:10.1021/je5010214).
Numbers after ± are expanded uncertainties.

Conditions: Liquid, Vibrating tube method

CCCCCCC [heptane]
Conditions	mass density [kg/m3]
283.15 K, 101 kPa	692.398 ± 0.81
283.15 K, 267.6 kPa	692.646 ± 0.81
283.15 K, 550.8 kPa	692.799 ± 0.81
283.15 K, 878.6 kPa	693.177 ± 0.81
283.15 K, 991.3 kPa	693.192 ± 0.81
283.15 K, 2020.2 kPa	694.161 ± 0.82
283.15 K, 2914.8 kPa	694.997 ± 0.82
283.15 K, 4946.5 kPa	696.597 ± 0.82
283.15 K, 7034.8 kPa	698.638 ± 0.83
283.15 K, 9021.6 kPa	700.052 ± 0.83
283.15 K, 9991.9 kPa	700.869 ± 0.84
283.15 K, 11959 kPa	702.48 ± 0.84
283.15 K, 15011 kPa	704.783 ± 0.85
283.15 K, 18047 kPa	706.965 ± 0.86
283.15 K, 20045 kPa	708.637 ± 0.87
283.15 K, 22056 kPa	709.841 ± 0.88
283.15 K, 25044 kPa	712 ± 0.89
283.15 K, 28046 kPa	714.05 ± 0.9
283.15 K, 30052 kPa	715.435 ± 0.91
283.15 K, 32055 kPa	716.688 ± 0.92
283.15 K, 32971 kPa	717.342 ± 0.92
283.15 K, 33000 kPa	717.432 ± 0.92
283.15 K, 34016 kPa	718.012 ± 0.93
283.15 K, 34960 kPa	718.734 ± 0.93
283.15 K, 37943 kPa	720.455 ± 0.94
283.15 K, 40004 kPa	721.755 ± 0.95
283.15 K, 42058 kPa	723.102 ± 0.96
283.15 K, 44940 kPa	724.839 ± 0.98
283.15 K, 48022 kPa	726.526 ± 0.99
283.15 K, 49996 kPa	727.851 ± 1
283.15 K, 51982 kPa	728.904 ± 1
283.15 K, 54965 kPa	730.736 ± 1
283.15 K, 57949 kPa	732.407 ± 1
283.15 K, 59996 kPa	733.467 ± 1.1
283.15 K, 62025 kPa	734.345 ± 1.1
283.15 K, 64998 kPa	735.98 ± 1.1
283.16 K, 65971 kPa	736.499 ± 1.1
288.15 K, 102 kPa	688.224 ± 0.81
288.15 K, 391.3 kPa	688.682 ± 0.81
288.15 K, 554.4 kPa	688.232 ± 0.81
288.15 K, 882.7 kPa	689.214 ± 0.81
288.15 K, 989.1 kPa	688.618 ± 0.81
288.15 K, 2057.5 kPa	689.559 ± 0.82
288.15 K, 2917.8 kPa	690.931 ± 0.82
288.15 K, 5041.4 kPa	692.738 ± 0.82
288.15 K, 7088.8 kPa	693.96 ± 0.83
288.15 K, 9018.6 kPa	695.614 ± 0.83
288.15 K, 10040 kPa	696.278 ± 0.84
288.15 K, 12072 kPa	698.584 ± 0.84
288.15 K, 15001 kPa	700.836 ± 0.85
288.15 K, 17968 kPa	703.23 ± 0.86
288.15 K, 20068 kPa	704.758 ± 0.87
288.15 K, 22020 kPa	705.649 ± 0.88
288.15 K, 25002 kPa	707.645 ± 0.89
288.15 K, 28026 kPa	709.735 ± 0.9
288.15 K, 30035 kPa	711.006 ± 0.91
288.15 K, 32084 kPa	712.959 ± 0.92
288.15 K, 33050 kPa	713.818 ± 0.93
288.15 K, 33096 kPa	713.93 ± 0.93
288.15 K, 34036 kPa	714.067 ± 0.93
288.15 K, 35077 kPa	714.575 ± 0.94
288.15 K, 37993 kPa	716.378 ± 0.95
288.15 K, 40041 kPa	717.608 ± 0.96
288.15 K, 42023 kPa	718.735 ± 0.97
288.15 K, 44979 kPa	720.398 ± 0.98
288.15 K, 48045 kPa	723.18 ± 1
288.15 K, 50068 kPa	724.245 ± 1
288.15 K, 52032 kPa	724.841 ± 1
288.15 K, 55077 kPa	726.211 ± 1
288.15 K, 58004 kPa	729.214 ± 1.1
288.15 K, 59988 kPa	729.723 ± 1.1
288.15 K, 61974 kPa	731.101 ± 1.1
288.15 K, 64942 kPa	731.745 ± 1.1
288.15 K, 66025 kPa	732.751 ± 1.1
293.15 K, 100.5 kPa	683.714 ± 0.81
293.15 K, 825.1 kPa	684.796 ± 0.81
293.15 K, 1971.7 kPa	685.978 ± 0.82
293.15 K, 3060.6 kPa	686.787 ± 0.82
293.15 K, 5011 kPa	688.859 ± 0.82
293.15 K, 9042.1 kPa	692.394 ± 0.83
293.15 K, 10036 kPa	693.252 ± 0.84
293.15 K, 11946 kPa	694.459 ± 0.84
293.15 K, 14941 kPa	697.266 ± 0.85
293.15 K, 21987 kPa	701.769 ± 0.88
293.15 K, 27986 kPa	706.659 ± 0.91
293.15 K, 33150 kPa	710.401 ± 0.93
293.15 K, 33151 kPa	710.425 ± 0.93
293.15 K, 34099 kPa	710.557 ± 0.93
293.15 K, 35000 kPa	711.53 ± 0.94
293.15 K, 40081 kPa	714.898 ± 0.96
293.15 K, 42099 kPa	716.347 ± 0.97
293.15 K, 45068 kPa	718.234 ± 0.99
293.15 K, 54966 kPa	724.479 ± 1
293.15 K, 58072 kPa	726.215 ± 1.1
293.15 K, 66045 kPa	730.5 ± 1.1
293.16 K, 305.2 kPa	684.504 ± 0.81
293.16 K, 476.4 kPa	684.708 ± 0.81
293.16 K, 1045.2 kPa	685.167 ± 0.81
293.16 K, 7096.8 kPa	690.796 ± 0.83
293.16 K, 17889 kPa	698.789 ± 0.86
293.16 K, 19992 kPa	701.345 ± 0.87
293.16 K, 24983 kPa	704.2 ± 0.89
293.16 K, 29976 kPa	708.599 ± 0.91
293.16 K, 32232 kPa	710.098 ± 0.92
293.16 K, 38026 kPa	712.948 ± 0.95
293.16 K, 48022 kPa	720.258 ± 1
293.16 K, 50084 kPa	721.322 ± 1
293.16 K, 52032 kPa	722.789 ± 1
293.16 K, 60018 kPa	727.31 ± 1.1
293.16 K, 61962 kPa	728.261 ± 1.1
293.16 K, 64991 kPa	729.973 ± 1.1
298.15 K, 102.3 kPa	679.807 ± 0.81
298.15 K, 305.4 kPa	680.336 ± 0.81
298.15 K, 854.5 kPa	680.896 ± 0.81
298.15 K, 1980.9 kPa	681.933 ± 0.82
298.15 K, 3167.8 kPa	682.97 ± 0.82
298.15 K, 5067.6 kPa	684.841 ± 0.82
298.15 K, 7065.3 kPa	686.383 ± 0.83
298.15 K, 10107 kPa	689.119 ± 0.84
298.15 K, 20128 kPa	696.696 ± 0.87
298.15 K, 22004 kPa	699.062 ± 0.88
298.15 K, 25080 kPa	701.29 ± 0.89
298.15 K, 33113 kPa	707.026 ± 0.93
298.15 K, 33924 kPa	706.971 ± 0.94
298.15 K, 38097 kPa	709.948 ± 0.96
298.15 K, 40161 kPa	711.975 ± 0.96
298.15 K, 42028 kPa	713.324 ± 0.97
298.15 K, 45021 kPa	715.087 ± 0.99
298.15 K, 48107 kPa	717.001 ± 1
298.15 K, 50068 kPa	718.317 ± 1
298.15 K, 55016 kPa	721.123 ± 1
298.15 K, 57931 kPa	723.027 ± 1.1
298.15 K, 59914 kPa	724.031 ± 1.1
298.15 K, 62036 kPa	725.393 ± 1.1
298.15 K, 65018 kPa	726.954 ± 1.1
298.16 K, 493.7 kPa	680.581 ± 0.81
298.16 K, 1012.6 kPa	680.891 ± 0.81
298.16 K, 9120.9 kPa	688.48 ± 0.83
298.16 K, 11970 kPa	689.977 ± 0.84
298.16 K, 15220 kPa	693.294 ± 0.86
298.16 K, 17984 kPa	694.869 ± 0.87
298.16 K, 28040 kPa	703.578 ± 0.91
298.16 K, 30089 kPa	704.725 ± 0.92
298.16 K, 32034 kPa	706.093 ± 0.93
298.16 K, 33093 kPa	706.936 ± 0.93
298.16 K, 35217 kPa	707.884 ± 0.94
298.16 K, 52020 kPa	719.461 ± 1
298.16 K, 66118 kPa	727.501 ± 1.1
303.15 K, 100.7 kPa	675.559 ± 0.81
303.15 K, 304.1 kPa	675.598 ± 0.81
303.15 K, 498.9 kPa	675.77 ± 0.81
303.15 K, 900.6 kPa	675.904 ± 0.81
303.15 K, 979.1 kPa	676.053 ± 0.81
303.15 K, 1977.6 kPa	677.27 ± 0.82
303.15 K, 4930.4 kPa	680.06 ± 0.82
303.15 K, 11975 kPa	686.61 ± 0.84
303.15 K, 15044 kPa	689.15 ± 0.86
